Drawing on ChEMBL document CHEMBL4308908, “Lamellarin-inspired potent topoisomerase I inhibitors with the unprecedented benzo[g][1]benzopyrano[4,3-b]indol-6(13H)-one scaffold” (Bioorg Med Chem, 2019), this text covers inhibition, GI50 and Activity for 16 compounds.

The source made the active and inactive calls. The calls are words filed in the database; no cut-off is given here.

Assay [1] concerns the target T1, DNA topoisomerase I (Bos taurus) (UniProt F1MN93).
T1 sequence (whole entry): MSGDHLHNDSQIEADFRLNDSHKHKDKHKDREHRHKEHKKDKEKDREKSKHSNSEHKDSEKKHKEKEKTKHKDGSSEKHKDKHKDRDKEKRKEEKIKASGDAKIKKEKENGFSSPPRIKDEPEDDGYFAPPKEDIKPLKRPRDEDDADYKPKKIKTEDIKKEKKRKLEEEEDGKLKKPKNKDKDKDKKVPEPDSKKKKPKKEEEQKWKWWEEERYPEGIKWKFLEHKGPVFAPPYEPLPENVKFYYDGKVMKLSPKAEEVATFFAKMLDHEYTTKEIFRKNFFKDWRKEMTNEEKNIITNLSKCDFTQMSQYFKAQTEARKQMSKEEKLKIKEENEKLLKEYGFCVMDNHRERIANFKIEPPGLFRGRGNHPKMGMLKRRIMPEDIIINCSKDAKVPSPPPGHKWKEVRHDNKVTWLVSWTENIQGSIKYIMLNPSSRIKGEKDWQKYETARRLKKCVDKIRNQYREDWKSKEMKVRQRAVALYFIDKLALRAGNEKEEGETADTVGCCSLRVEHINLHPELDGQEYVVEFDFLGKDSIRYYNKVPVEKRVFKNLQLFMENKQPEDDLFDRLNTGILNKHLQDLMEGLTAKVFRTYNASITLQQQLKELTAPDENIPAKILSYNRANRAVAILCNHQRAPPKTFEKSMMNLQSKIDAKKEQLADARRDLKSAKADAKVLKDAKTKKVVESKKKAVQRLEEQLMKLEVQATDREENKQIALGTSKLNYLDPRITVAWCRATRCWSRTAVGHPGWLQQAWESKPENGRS
Kind of assay: Inhibition of calf thymus DNA topoisomerase 1 assessed as reduction in enzyme-mediated relaxation of supercoiled pBR322 plasmid DNA at 10 uM after 30 mins by agarose gel electrophoresis.

In assay [2] the target is T1, DNA topoisomerase I (Bos taurus). Kind of assay: Inhibition of calf thymus DNA topoisomerase 1 assessed as reduction in enzyme-mediated relaxation of supercoiled pBR322 plasmid DNA at 10 uM after 30 mins by ethidium bromide staining-based agarose gel electrophoresis.
Another assay has as its system MCF7. Kind of assay: Antiproliferative activity against human MCF7 cells after 48 hrs by SRB assay. Type of assay: functional. Conditions: MCF7, 48 h, read-out: GI50. Background: The SRB assay estimates cell density from bound dye.
In another assay the test system is U-251. As to the kind of experiment: Antiproliferative activity against human U251 cells after 48 hrs by SRB assay. In kind it is functional. Conditions: U-251, 48 h, read-out: GI50.
Another assay deals with HCT-116. As to the kind of experiment: Antiproliferative activity against human HCT116 cells after 48 hrs by SRB assay. In kind it is functional. Conditions: HCT-116, 48 h, read-out: GI50.
A further assay relates to NCI-H522. As to the kind of experiment: Antiproliferative activity against human NCI-H522 cells after 48 hrs by SRB assay. In kind it is functional. Conditions: NCI-H522, 48 h, read-out: GI50.
A further assay has as its system LOX IMVI. Kind of assay: Antiproliferative activity against human LOXIMVI cells after 48 hrs by SRB assay. To be noted: read-out: GI50. In kind it is functional.
Another assay concerns SK-OV-3. As to the kind of experiment: Antiproliferative activity against human SKOV3 cells after 48 hrs by SRB assay. Type of assay: functional. Conditions: SK-OV-3, 48 h, read-out: GI50.
In a further assay the test system is ACHN. As to the kind of experiment: Antiproliferative activity against human ACHN cells after 48 hrs by SRB assay. In kind it is functional. To be noted: read-out: GI50.
The subject of another assay is MKN-28. As to the kind of experiment: Antiproliferative activity against human MKN28 cells after 48 hrs by SRB assay. In kind it is functional. To be noted: MKN-28, 48 h, read-out: GI50.
The test system of a further assay is DU-145. As to the kind of experiment: Antiproliferative activity against human DU145 cells after 48 hrs by SRB assay. Type of assay: functional. Conditions: DU-145, 48 h, read-out: GI50.
A further assay relates to Colon 26. As to the kind of experiment: Antitumor activity against mouse Colon 26 cells implanted in BALB/c mouse at 50 mg/kg, iv administered every 2 days for 7 times starting 1 day after tumor implantation and measured daily until day 20. In kind it is functional, organism-based.

One may read the GI50 as the concentration at which growth is held to half of that of the control. As for `COc1cc2c(ccc3c4c(=O)oc5cc(O)c(OC)cc5c4n(CCN(C)C)c23)cc1O`, the inhibition entry in assay [1] and in assay [2] was “Active” throughout. Further, the GI50 is 2.6 nM with MCF7; 4 nM with U-251; 9.7 nM in the assay with HCT-116; 3.9 nM with NCI-H522; 2.7 nM with LOX IMVI; 26 nM in the assay on SK-OV-3. Moreover, the GI50 is 1.9 nM with ACHN, 67 nM in the assay with MKN-28 and 2 nM in the assay on DU-145.

As for `CCn1c2c3cc(OC)c(O)cc3ccc2c2c(=O)oc3cc(O)c(OC)cc3c21`, the GI50 in the assay on MCF7, in the assay with U-251, with HCT-116, in the assay on NCI-H522, in the assay with LOX IMVI and in the assay with SK-OV-3 was less than 10 nM throughout. In addition, the GI50 with ACHN, in the assay on MKN-28 and in the assay on DU-145 was less than 10 nM in each case.

For `COc1cc2c(cc1O)oc(=O)c1c2c(F)c2c3cc(OC)c(O)cc3ccn21`, the 50% growth inhibitory concentration (GI50) was 110 nM with MCF7; 71 nM in the assay with U-251; 120 nM with HCT-116; less than 10 nM in the assay with NCI-H522; 24 nM in the assay with LOX IMVI; 470 nM with SK-OV-3. The GI50 was found to be 28 nM in the assay with ACHN, 360 nM in the assay with MKN-28 and 24 nM with DU-145.

Turning to `CCc1c2c(nc3ccc(OC(=O)N4CCC(N5CCCCC5)CC4)cc13)-c1cc3c(c(=O)n1C2)COC(=O)[C@]3(O)CC`, the outcome in the assay with Colon 26 was Active.

As for `COc1cc(-c2c3c4cc(OC)c(O)cc4oc(=O)c3n3ccc4cc(O)c(OC)cc4c23)ccc1O` [LAMELLARIN D], the inhibition entry in [1] and in [2] was “Active” each time. Besides, the GI50 in the assay on MCF7 is less than 10 nM; with U-251, less than 10 nM; in the assay with HCT-116, less than 10 nM; with NCI-H522 it was less than 10 nM; in the assay with LOX IMVI it was less than 10 nM; in the assay on SK-OV-3, 38 nM. Also, the values for the GI50 in the assay on ACHN, with MKN-28 and with DU-145 were less than 10 nM, 50 nM and less than 10 nM, respectively.

Regarding `COc1cc2c(cc1O)oc(=O)c1c2c(CN(C)C)c2c3cc(OC)c(O)cc3ccn21`, the GI50 came out at 55 nM in the assay with MCF7; 100 nM in the assay with U-251; 310 nM in the assay on HCT-116; 82 nM in the assay on NCI-H522; 180 nM in the assay on LOX IMVI; 1600 nM with SK-OV-3. The 50% growth inhibitory concentration (GI50) in the assay on ACHN was 44 nM; in the assay on MKN-28, 2300 nM; in the assay on DU-145, 110 nM.

As to `CC[C@@]1(O)C(=O)OCc2c1cc1n(c2=O)Cc2cc3ccccc3nc2-1`, the inhibition result in assay [1] and in assay [2] was “Active” in each case.

`C#CCn1c2c3cc(OC)c(O)cc3ccc2c2c(=O)oc3cc(O)c(OC)cc3c21`: the GI50 in the assay on MCF7 is 18 nM; with U-251, less than 10 nM; in the assay with HCT-116, 34 nM; with NCI-H522, less than 10 nM; in the assay on LOX IMVI it was less than 10 nM; in the assay on SK-OV-3, 56 nM. Besides, the GI50 is less than 10 nM in the assay with ACHN, 66 nM in the assay on MKN-28 and 27 nM in the assay with DU-145.

For `COc1cc2c(ccc3c2[nH]c2c4cc(OC)c(O)cc4oc(=O)c32)cc1O`, the inhibition entry in [1] and in assay [2] was “Active” each time. Moreover, the GI50 in the assay with MCF7 is 68 nM; in the assay with U-251, less than 10 nM; in the assay on HCT-116, 88 nM; in the assay with NCI-H522, less than 10 nM; with LOX IMVI it was 21 nM; with SK-OV-3, 330 nM. Further, the concentration for 50% growth inhibition (GI50) in the assay with ACHN is 110 nM; with MKN-28 it was 1600 nM; in the assay on DU-145 it was 51 nM.

On to `C=CCn1c2c3cc(OC)c(O)cc3ccc2c2c(=O)oc3cc(O)c(OC)cc3c21`, for which the 50% growth inhibitory concentration (GI50) in the assay with MCF7 amounted to 14 nM; with U-251 it was 7.6 nM; in the assay on HCT-116 it was 25 nM; in the assay on NCI-H522, 9.5 nM; in the assay with LOX IMVI, 6.4 nM; with SK-OV-3 it was 29 nM. For the same compound, the GI50 was 4.2 nM with ACHN, 82 nM in the assay with MKN-28 and 6.5 nM in the assay with DU-145.

For `COc1cc2c(cc1O)oc(=O)c1c2c(C=O)c2c3cc(OC)c(O)cc3ccn21`, the GI50 in the assay with MCF7 is 37 nM; in the assay on U-251, 29 nM; in the assay on HCT-116, 78 nM; with NCI-H522, 21 nM; in the assay with LOX IMVI, 35 nM; in the assay on SK-OV-3 it was 230 nM. The 50% growth inhibitory concentration (GI50) with ACHN worked out at 26 nM; in the assay with MKN-28 it was 230 nM; in the assay on DU-145 it was 28 nM.

For the compound `COc1cc2c(cc1O)oc(=O)c1c2cc2c3cc(OC)c(O)cc3ccn21`, the GI50 was 76 nM with MCF7; 27 nM with U-251; 33 nM with HCT-116; less than 10 nM in the assay on NCI-H522; 20 nM with LOX IMVI; 83 nM in the assay with SK-OV-3. Besides, the values for the GI50 in the assay with ACHN, in the assay on MKN-28 and in the assay with DU-145 were 14 nM, 84 nM and 20 nM, respectively.

In the case of `COc1cc2c(cc1O)oc(=O)c1c2c(Br)c2c3cc(OC)c(O)cc3ccn21`, the 50% growth inhibitory concentration (GI50) in the assay with MCF7 worked out at 41 nM; with U-251, 29 nM; in the assay on HCT-116, 67 nM; in the assay on NCI-H522, 14 nM; in the assay with LOX IMVI, 25 nM; in the assay with SK-OV-3, 500 nM. The values for the 50% growth inhibitory concentration (GI50) with ACHN, in the assay on MKN-28 and with DU-145 were 15 nM, 560 nM and 28 nM, respectively.

As for `COc1cc2c(cc1O)oc(=O)c1c2c(Cl)c2c3cc(OC)c(O)cc3ccn21`, the GI50 with MCF7 is 13 nM; in the assay on U-251, less than 10 nM; with HCT-116, 37 nM; in the assay with NCI-H522, less than 10 nM; with LOX IMVI, less than 10 nM; in the assay on SK-OV-3, 250 nM. Besides, the 50% growth inhibitory concentration (GI50) in the assay on ACHN was less than 10 nM; in the assay on MKN-28, 130 nM; with DU-145, less than 10 nM.

For the compound `CCc1c2c(nc3ccc(O)cc13)-c1cc3c(c(=O)n1C2)COC(=O)[C@]3(O)CC` [7-ETHYL-10-HYDROXYCAMPTOTHECIN], the GI50 with MCF7 stood at 3 nM; with U-251, 2.8 nM; with HCT-116, 23 nM; with NCI-H522 it was 3.7 nM; with LOX IMVI, 5.3 nM; with SK-OV-3 it was 23 nM. The figures for the GI50 in the assay on ACHN, in the assay with MKN-28 and in the assay on DU-145 were 5.9 nM, 110 nM and 4.3 nM, respectively.

Consider `COc1cc2c(cc1O)oc(=O)c1c2c(C)c2c3cc(OC)c(O)cc3ccn21`, for which the concentration for 50% growth inhibition (GI50) with MCF7 came to 110 nM; in the assay on U-251, 9.1 nM; with HCT-116 it was 33 nM; in the assay with NCI-H522 it was 4.7 nM; with LOX IMVI, 5.5 nM; in the assay on SK-OV-3, 38 nM. Moreover, the concentration for 50% growth inhibition (GI50) in the assay with ACHN was 3.8 nM; with MKN-28, 64 nM; with DU-145, 4.7 nM.
